Laboratory results as given in PMC12332667, “Role of Structural Modifications in Peptidomimetic Compounds as Potential Antimicrobial Agents against Staphylococcus aureus and Streptococcus pyogenes: Balancing Bioavailability, Safety, and Antimicrobial Activity” (ACS Omega, 2025).
In brackets after ≈: the same amount, converted by molar mass. Several values for one entry are separate records, joined by “and”; a condition that tells them apart may be missing. Equal entries are not always repeated. Residues, ends and D or L forms follow the SMILES beside them.

Legend:
[1] = Hydrophobicity by reverse-phase chromatography; format: physicochemical; conditions: acetonitrile content in the mobile phase at the retention time
Text: Reverse-phase chromatography was employed to assess the hydrophobicity characteristics of the peptidomimetics. Hydrophobicity was quantified by determining the acetonitrile content in the mobile phase at the retention time of a peptidyl derivative (Table S2). The least hydrophobic compound (40% acetonitrile) was A-198, which aligns with the calculations of hydrophobicity by SwissADME and pkCSM (Table ). Next in the hydrophobicity sequence were A-197, A-220, A-219, A-174, and A-221, eluting with 42.5-43.9% of acetonitrile. Then there were followed by […], and A-179, with the acetonitrile percentage of 44.8-49.8. The compounds A-176, A-20, A-152, A-134, and A-210 needed over 50% of acetonitrile to be eluted from the column.

[2] = tested on: K. pneumoniae ATCC 700603; experiment: MIC/MBC broth microdilution, K. pneumoniae; format: cell-based
In short: (§1)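 BHI broth microdilution (NCCLS); ~10^5 CFU/mL; 37 °C, 18 h. MIC = lowest conc., no visible growth (≥90% vs untreated). MBC = ≤3 colonies, ≥99.9% kill. Water/DMSO/EtOH solvent controls; technical triplicate ×3 biological repeats.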

[3] = tested on: E. faecalis c.i.; experiment: MIC/MBC broth microdilution, E. faecalis; format: cell-based, Enterococcus faecalis
In short: as §1

[4] = tested on: S. mutans c.i.; experiment: MIC/MBC broth microdilution, S. mutans; format: cell-based, Streptococcus mutans
In short: as §1

[5] = tested on: fibroblasts (46BR.1N); experiment: LDH cytotoxicity test, fibroblasts; format: cell-based; conditions: for cytotoxicity (LDH), in words / concentration at which cytotoxic effect starts: 48 h; for cytotoxicity (LDH), in words: 50-150 μg/mL; for concentration at which cytotoxic effect starts: LDH
In short: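 Cytotoxicity as LDH release after 48 h serum-free treatment (50, 100, 150 μg/mL peptidomimetics) of 46BR.1N fibroblasts or HaCaT keratinocytes seeded at 5000 per well. Absorbance 450 nm; untreated set as 0% and Triton X-100 1% as maximal release; Mann–Whitney U test, p ≤ 0.05.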

[6] = tested on: human dermal fibroblast cell line (46BR.1N); experiment: XTT cell proliferation assay, fibroblasts; format: cell-based; conditions: for effect on proliferation, in words: 48 and 72 h, 0.01–150 μg/mL
In short: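 Proliferation was read as XTT absorbance at 490 nm after 4 h of reagent incubation, following 48 or 72 h of peptide exposure in serum-free HG-DMEM (37 °C, 5% CO2). The 72 h arm included a half-medium change with second peptide dose at 48 h. Significance by Mann–Whitney U, p ≤ 0.05.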

[7] = Stability / presence in human plasma; format: in vitro ADME; conditions: 24 h incubation at 37 °C
Experimental: Blood was drawn from healthy volunteers, and lithium/heparin holding tubes were used to remove the clot by centrifugation. The plasma was aliquoted in sterile conditions and incubated with the desired compounds for 24 h at 37 °C. The samples were prepared under sterile conditions following the previously described protocol. The samples were collected at six time points (0, 1, 2, 3, 6, and 24 h) for determining stability in water solutions, and time points of 0, 10, 20, 30, 40, 50, and 60 min, as well as of 2, 3, 6, and 24 h, for determining stability in human plasma. The analysis was performed by HPLC using a Kromasil C8 column (5 μm, 90 Å, 1.0 mm × 250 mm) monitored by a PDA or ELDS-LT II detector. For quantification, peak areas were compared to a calibration curve calculated by Shimadzu LCsolution Software (Kyoto, Japan). Graphs were prepared in GraphPad Prism (Boston, USA).

Structure (SMILES) | % AcCN (acetonitrile required for elution from the column) [1] | MIC ([2]; H2O) [µg/mL] | MIC ([2]; water additive DMSO) [µg/mL] | MIC ([2]; water additive EtOH) [µg/mL] | MIC ([3]; H2O) [µg/mL] | MIC ([3]; water additive DMSO) [µg/mL] | MBC ([3]; water additive EtOH) [µg/mL] | MIC ([3]; water additive EtOH) [µg/mL] | MIC ([4]; H2O) [µg/mL] | MIC ([4]; water additive DMSO) [µg/mL] | MIC ([4]; water additive EtOH) [µg/mL] | cytotoxicity (LDH), in words [5] | effect on proliferation, in words ([6]; XTT) | concentration at which cytotoxic effect starts [5] [µg/mL] | present in human plasma [7] | further results
CC(C)[C@@H](CNC(=O)C(=Cc1ccccc1)c1ccccc1)NC(=O)[C@H](CCCNC(=N)N)NC(=O)[C@H](CCCCNC(=N)N)NC(=O)OCc1ccccc1 [Compound A-192] | 44.8–49.8% and 48.7% | > 512 | > 512 | > 512 | > 512 | > 512 | 512 (≈ 666 µM) | 256 (≈ 333 µM) | > 512 | > 512 | > 512 | much lower | negative impact | – | – | proliferation relative to control at 100 and 150 μg/mL ([6]; XTT): 25%; proliferation relative to control at 50 μg/mL ([6]; XTT, 50 μg/mL): 50%
CC(C)[C@@H](CNC(=O)C(=Cc1ccccc1)c1ccccc1)NC(=O)[C@H](Cc1c[nH]cn1)NC(=O)[C@H](CCCCNC(=N)N)NC(=O)OCc1ccccc1 [Compound A-193] | 49.0% and 44.8–49.8% | > 512 | > 512 | > 512 | 256 (≈ 341 µM) | 512 (≈ 683 µM) | 256 (≈ 341 µM) | – | – | 8 (≈ 10.7 µM) | 8 (≈ 10.7 µM) | cytotoxic only at a concentration of 150 μg/mL | – | 150 | – | MBC ([3]; H2O): 512 µg/mL (≈ 683 µM); MBC ([4]; water additive DMSO): 16 µg/mL (≈ 21.3 µM); MBC ([4]; water additive EtOH): 16 µg/mL (≈ 21.3 µM); antiproliferative effect (decrease vs control) ([6]; up to 150 μg/mL, A-193 and A-179 after 48 h): over 50%
CC(C)[C@H](NC(=O)[C@H](Cc1c[nH]cn1)NC(=O)[C@H](CCCNC(=N)N)NC(=O)OCc1ccccc1)C(=O)NCCc1ccccc1 [Compound A-219] (HELM PEPTIDE1{[O=C(OCc1ccccc1)[*:2]].R.H.V.[c1ccc(CCN[*:1])cc1]}$$$$V2.0) | 42.6% | > 512 | > 512 | > 512 | > 512 | > 512 | – | > 512 | > 512 | > 512 | > 512 | slight cytotoxicity | best pro-proliferative effect | – | 85–90% | pro-proliferative effect above control ([6]; A-196 0.01–10 μg/mL, A-219 above 0.1 μg/mL, A-213 lower concentrations): around 20%
CC(C)[C@H](NC(=O)[C@H](Cc1c[nH]cn1)NC(=O)[C@H](CCCCN)NC(=O)OCc1ccccc1)C(=O)NCCc1ccccc1 [Compound A-220] (HELM PEPTIDE1{[O=C(OCc1ccccc1)[*:2]].K.H.V.[c1ccc(CCN[*:1])cc1]}$$$$V2.0) | 42.4% | > 512 | > 512 | > 512 | > 512 | > 512 | – | > 512 | 256 (≈ 413 µM) | > 512 | > 512 | – | did not exert any negative impact | > 150 | 85–90% | MBC ([4]; H2O): 512 µg/mL (≈ 826 µM); cytotoxicity (LDH) ([5]; 48 h, 50, 100 and 150 μg/mL, vs 1% Triton X-100): 10–15% and 10%
CC(C)[C@H](NC(=O)[C@H](CCCNC(=N)N)NC(=O)[C@H](CCCNC(=N)N)NC(=O)OCc1ccccc1)C(=O)NCCc1ccccc1 [Compound A-221] (HELM PEPTIDE1{[O=C(OCc1ccccc1)[*:2]].R.R.V.[c1ccc(CCN[*:1])cc1]}$$$$V2.0) | 43.9% | > 512 | > 512 | > 512 | > 512 | > 512 | – | > 512 | > 512 | > 512 | > 512 | slight cytotoxicity | pro-proliferating effect at lower concentrations followed by an antiproliferative effect at higher concentrations | – | 85–90% | –
